Earlier results as cited in patent publication US20090318548A1, “PARA-QUINOL DERIVATIVES AND METHODS OF STEREO SELECTIVELY SYNTHESIZING AND USING SAME” (UNIVERSITY OF NORTHERN BRITISH COLUMBIA, priority 2006, published 2009).

Key:
Bacillus subtilis YycG = Bacillus subtilis YycG (Bacillus subtilis, UniProt Q45614); settings: for inhibition of Bacillus subtilis YycG (comparative experiments): established antibiotics as comparators
[1] = target: POLO-like kinase 1 (Plk1) enzyme (Homo sapiens, UniProt P53350)
[2] = target: T1, YycG from Staphylococcus aureus (Staphylococcus aureus, UniProt Q2G2U4); settings: read-out: IC50, inhibition of YycG
T1 sequence (Q2G2U4 1-608): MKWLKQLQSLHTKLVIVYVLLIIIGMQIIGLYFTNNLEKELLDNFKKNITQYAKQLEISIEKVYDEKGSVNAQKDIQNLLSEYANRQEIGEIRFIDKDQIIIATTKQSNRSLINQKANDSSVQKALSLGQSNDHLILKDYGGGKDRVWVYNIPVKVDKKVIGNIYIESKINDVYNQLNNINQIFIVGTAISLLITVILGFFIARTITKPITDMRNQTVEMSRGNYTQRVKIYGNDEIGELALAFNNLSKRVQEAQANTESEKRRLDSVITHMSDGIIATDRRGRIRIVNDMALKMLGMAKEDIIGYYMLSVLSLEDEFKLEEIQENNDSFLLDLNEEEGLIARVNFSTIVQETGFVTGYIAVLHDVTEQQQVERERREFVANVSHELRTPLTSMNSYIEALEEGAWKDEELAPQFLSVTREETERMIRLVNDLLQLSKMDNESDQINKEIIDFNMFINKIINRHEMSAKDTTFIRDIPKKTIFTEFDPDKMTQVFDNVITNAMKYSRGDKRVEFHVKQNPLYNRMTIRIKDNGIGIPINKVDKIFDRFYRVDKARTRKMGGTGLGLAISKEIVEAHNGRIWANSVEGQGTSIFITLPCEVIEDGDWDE

Sequence of Bacillus subtilis YycG (Q45614 whole entry): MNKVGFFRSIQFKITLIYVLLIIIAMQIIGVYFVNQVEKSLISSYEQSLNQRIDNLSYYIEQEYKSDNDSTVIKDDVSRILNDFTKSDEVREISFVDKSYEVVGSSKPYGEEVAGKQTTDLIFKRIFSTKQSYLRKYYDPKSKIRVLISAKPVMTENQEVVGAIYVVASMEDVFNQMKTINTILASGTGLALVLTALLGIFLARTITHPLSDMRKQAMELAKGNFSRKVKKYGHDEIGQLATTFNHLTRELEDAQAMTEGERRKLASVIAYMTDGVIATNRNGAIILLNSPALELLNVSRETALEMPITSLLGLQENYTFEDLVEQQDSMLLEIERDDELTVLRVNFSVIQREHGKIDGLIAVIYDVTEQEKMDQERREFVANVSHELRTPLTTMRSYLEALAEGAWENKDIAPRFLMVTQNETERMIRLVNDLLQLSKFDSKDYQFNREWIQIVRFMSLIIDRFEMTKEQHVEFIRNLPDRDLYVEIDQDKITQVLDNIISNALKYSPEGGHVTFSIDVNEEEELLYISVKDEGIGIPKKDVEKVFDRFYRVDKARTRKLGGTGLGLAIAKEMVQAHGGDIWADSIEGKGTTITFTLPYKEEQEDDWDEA
Sequence of POLO-like kinase 1 (Plk1) enzyme (P53350 whole entry, species assumed): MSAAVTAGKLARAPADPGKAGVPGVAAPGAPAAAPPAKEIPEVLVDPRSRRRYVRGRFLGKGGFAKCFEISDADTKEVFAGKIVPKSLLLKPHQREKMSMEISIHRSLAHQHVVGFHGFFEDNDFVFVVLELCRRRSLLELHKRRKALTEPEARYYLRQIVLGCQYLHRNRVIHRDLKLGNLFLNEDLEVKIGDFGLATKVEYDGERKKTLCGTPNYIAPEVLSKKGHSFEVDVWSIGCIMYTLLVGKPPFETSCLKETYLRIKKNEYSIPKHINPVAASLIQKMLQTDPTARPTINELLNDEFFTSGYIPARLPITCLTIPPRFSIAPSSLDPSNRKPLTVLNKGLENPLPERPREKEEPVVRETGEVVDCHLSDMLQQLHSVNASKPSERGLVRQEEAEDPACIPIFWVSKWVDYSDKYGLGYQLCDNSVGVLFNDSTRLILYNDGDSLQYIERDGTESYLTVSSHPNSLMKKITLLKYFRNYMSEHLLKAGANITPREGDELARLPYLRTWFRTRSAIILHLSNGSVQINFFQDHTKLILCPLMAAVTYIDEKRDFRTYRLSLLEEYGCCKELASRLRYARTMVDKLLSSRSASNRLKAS

SMILES	inhibition of Bacillus subtilis YycG (comparative experiments) (Bacillus subtilis YycG)	other results
Cc1nnc(SCC2=C(C(=O)O)N3C(=O)[C@@H](NC(=O)Cn4cnnn4)[C@H]3SC2)s1 [cefazolin]	negligible inhibition	–
CCCCCCC(C)/C=C(C)/C=C/C(=O)NC1CC2(OC1O)C1OC1C(O)C1OC12 (stereo not drawn) [Aranorosinol A]	–	inhibition of Plk1 enzyme [1]: 118 µM
CCCCCCC(C)/C=C(C)/C=C/C(=O)N[C@H]1CC2(O[C@H]1O)[C@@H]1O[C@@H]1C(O)(CC(C)=O)[C@@H]1O[C@@H]12 (stereo partly drawn) [Aranorosinol B]	–	IC50 [2]: 211 µM; IC50 (Bacillus subtilis YycG; YycG from Bacillus subtilis, read-out: IC50, inhibition of YycG): 223 µM
CC[C@H]1OC(=O)[C@H](C)[C@@H](O[C@H]2C[C@@](C)(OC)[C@@H](O)[C@H](C)O2)[C@H](C)[C@@H](O[C@@H]2O[C@H](C)C[C@H](N(C)C)[C@H]2O)[C@](C)(O)C[C@@H](C)C(=O)[C@H](C)[C@@H](O)[C@]1(C)O [erythromycin]	negligible inhibition	–
NCC[C@H](O)C(=O)N[C@@H]1C[C@H](N)[C@@H](O[C@H]2O[C@H](CN)[C@@H](O)[C@H](O)[C@H]2O)[C@H](O)[C@H]1O[C@H]1O[C@H](CO)[C@@H](O)[C@H](N)[C@H]1O [amikacin]	negligible inhibition	–
